We go through 17 molecules from US20050054103A1, “Expansion of renewable stem cell populations using modulators of PI 3-kinase” (priority 2003, published 2005).

In series [1] the test system is HL-60 cells. Briefly: Copper determination in chelator treated cells (atomic absorption). The format is cell-based, human. The settings on record: for activity at 20 µM / activity at 100 µM / activity at 500 µM: Homo sapiens, HL-60, read-out: Average Intracellular Cu (% of control). How it is done: Copper Determination: Cells were harvested by centrifugation at 1000×g for 5 minutes. The cell pellet was washed three times by re-suspending the cells in PBS (Ca^++ and Mg^++ free) and centrifugation at 1000×g. An aliquot containing 2×10^6 cells was then transferred into a metal-free Eppendorf tube and the cells were recovered by centrifugation at 1000×g. The cell pellet was re-suspended in 0.03 M ultra-pure nitric acid to give a concentration of 1×10^7 cells/ml. The cells were homogenized with a high shear mixer (polytron, Kinematica, Switzerland) for 1 minutes to disrupt the cell and release intracellular copper content. Cell samples were vortexed before transferring to a vial autosampler and analyzed in duplicate by a Perkin Elmer graphite furnace atomic absorption spectrophotometer at a wavelength of 324.7 nm. The samples were analyzed against copper standard solution prepared from a commercial stock solution that was diluted with 0.03 M ultra pure nitric acid.
FIG. 44 provides the chemical structure of the various chelators employed in these experiments.

In series [2] the test system is Mouse erythroleukemic cells (MEL). Briefly: HMBA-induced differentiation of erythroleukemic cells. The format is cell-based. The note with it: day 3. How it is done: Mouse erythroleukemic cells (MEL): MEL cells are erythroblast like cells. Following treatment with several chemicals (differentiation inducers) the cells undergo erythroid differentiation and accumulate hemoglobin. […] At day 3 of the culture, the total number of cells and the percentage of hemoglobin-containing cells were determined (Table 7).
On day 3, total cell number and hemoglobin containing (benzidine positive) cells were determined.

Series [3] relates to CD34 cells. Nature of the series: Transition metal chelators in CD34+ cell liquid cultures (cell number, CD34 cells, clonability). The format is cell-based, human. The note with it: for cell proliferation and CFUc expansion in long-term CD34 cultures: long term cultures with early cytokines. How it is done: The interphase layer of mononuclear cells were collected, washed three times with Ca/Mg free phosphate buffered saline containing 1% bovine serum albumin (BSA). The cells were incubated for 30 min. at 4° C. with murine monoclonal anti CD34 antibody (0.5 μg/10^6 mononuclear cells) and thereafter isolated using the miniMACS apparatus (Miltenyi-Biotec, Bergisch, Gladbach, Germany) according to the manufacturer's protocol.
Culture procedures: For the expansion of progenitor cells, CD34^+ enriched fractions or unseparated mononuclear cells were seeded at about 1-3×10^4 cells/ml in either alpha minimal essential medium containing 10% preselected fetal calf serum (FCS) (both from GIBCO, Grand Island, N.Y.), or serum-free medium (Progenitor-34 medium, Life Technologies, Grand Island, N.Y.). The media were supplemented with a mixture of growth factors and transition metal chelators. The cultures were incubated at 37° C. in an atmosphere of 5% CO2 in air with extra humidity. Half of the medium was changed weekly with fresh medium containing all the supplements.
Cloning potential evaluations: The cloning potential of cells developed in the liquid culture was assayed, at different intervals, in semi-solid medium. The cells were washed and seeded in 35 mm dishes in methylcellulose containing alpha medium supplemented with recombinant growth factors (SCF, G-CSF, GM-CSF and EPO). Following 2 weeks incubation, the cultures were scored with an inverted microscope. Colonies were classified as blast, mixed, erythroid, myeloid, and megakaryocytic, according to their cellular composition.
Morphological assessment: In order to characterize the resulting culture populations, aliquots of cells were deposited on a glass slide (cytocentrifuge, Shandon, Runcorn, UK), fixed and stained in May-Grunwald Giemsa. Other aliquots were stained by benzidine for intracellular hemoglobin.
Immunofluorescence staining: At different intervals, cells from the liquid cultures were assayed for CD34 antigen. Aliquots were harvested, washed and incubated on ice with FITC-labeled anti CD45 monoclonal antibody and either PE-labeled anti CD34 (HPCA-2) monoclonal antibody or PE-labeled control mouse Ig. After incubation, red cells were lysed with lysing solution, while the remaining cells were washed and analyzed by flow cytometer.
Flow cytometry: Cells were analyzed and sorted using FACStar^plus flow cytometer (Becton-Dickinson, Immunofluorometry systems, Mountain View, Calif.). Cells were passed at a rate of 1,000 cells/second through a […] nozzle, using saline as the sheath fluid. […] The PMTs was set at the appropriate voltage. Logarithmic amplification was applied for measurements of fluorescence and linear amplification—for forward light scatter. At least 10^4 cells were analyzed.
Cord blood-derived CD34 cells were plated in liquid culture in the presence of: FL—50 ng/ml, SCF—50 ng/ml, IL-6—50 ng/ml, with or without IL-3—20 ng/ml, with or without TEPA—10 μM. On day 7, the percentage of CD34 cells and the total cell number were determined. Aliquots equivalent to 1×10^3 initiating cells were assayed on days 0 and 7 for colony forming cells (CFU) by cloning in semi-solid medium. CFU expansion represents the ratio of CFU present on day 7 to CFU present on day 0.
CD34^+ cells derived from human neonatal cord blood were purified by immunomagnetic method and then cultured in liquid medium supplemented with cytokines either with or without transition metal chelators. At weekly intervals, the cultures were demi-depopulated by removing half of the culture content (supernatant and cells) and replacing it with fresh medium, cytokines and the chelators. At the indicated weeks the cellular content of the cultures were quantified for total cells (by a manual microscopic/hemocytometric method), for CD34^+ cells (by immuno-flow cytometry) and for clonogenic cells (by cloning the cells in cytokine-supplemented semi-solid medium).

Series [4] deals with CD34+ cells. Briefly: Ex vivo expansion of CD34+ cell enriched cultures with RXR, RAR and RAR+RXR antagonists (CFU, CD34+ counts, FACS). It counts as cell-based, human. How it is done:
Cultures were prepared and maintained as described above.
, the percentage of cells bearing the CD34^+ marker (considered to be mostly committed progenitor cells), as well as the percentage of cells bearing the markers CD34^+/CD38^− and CD34^+Lin^− […]

Where [5] appears, read: polyamine chelating agents, long-term CD34 cultures (FIGS. 39a-b).
Where [6] appears, read: HX-531 (10^−5M in table head), 3 weeks after seeding.

`C1CNCCNCCN1.Cl.Cl.Cl` [1,4,7-Triazacyclononane trihydrochloride]: in series [1] (20 μM chelator), the “Average Intracellular ppb Cu” value worked out at 15.8 ppb and the activity at 20 µM turned out to be 32%. In series [1] (100 μM chelator), the “Average Intracellular ppb Cu” value amounted to 17.7 ppb and the activity at 100 µM turned out to be 36%.

Regarding `O=C1CC(=O)NCCNCCCNCCN1` [1,4,8,11-Tetraaza cyclotetradecane-5,7-dione], in series [1] (20 μM chelator), the “Average Intracellular ppb Cu” value was 37.9 ppb and the activity at 20 µM turned out to be 77%. In series [1] (100 μM chelator), the “Average Intracellular ppb Cu” value came to 27.4 ppb and the activity at 100 µM was determined as 56%. In series [1] (500 μM chelator), the “Average Intracellular ppb Cu” value is given as 28.3 ppb and the activity at 500 µM was determined as 57%.

As for `C1CNCCCNCCNCCCNC1` [1,4,8,12-tetraaza cyclopentadecane], in series [1] (20 μM chelator), the “Average Intracellular ppb Cu” value was determined as 13.4 ppb and the activity at 20 µM was found to be 27%. In addition, in series [1] (100 μM chelator), the “Average Intracellular ppb Cu” value stood at 12.1 ppb and the activity at 100 µM worked out at 25%. Further, in series [1] (500 μM chelator), the “Average Intracellular ppb Cu” value is given as 9.6 ppb and the activity at 500 µM is 19%.

In the case of `C1COCCNCCOCCN1` [1,7-Dioxa-4,10-diazacyclododecane], in series [1] (20 μM chelator), the “Average Intracellular ppb Cu” value came out at 35.5 ppb and the activity at 20 µM was 72%. Besides, in series [1] (100 μM chelator), the “Average Intracellular ppb Cu” value was 36.1 ppb and the activity at 100 µM was 73%. Besides, in series [1] (500 μM chelator), the “Average Intracellular ppb Cu” value was 35.0 ppb and the activity at 500 µM came to 71%.

Consider `C1CNCCOCCNCCN1` [1-Oxa-4,7,10-triazacyclododecane], for which, in series [1] (20 μM chelator), the “Average Intracellular ppb Cu” value is reported as 39.0 ppb and the activity at 20 µM came out at 79%. In addition, in series [1] (100 μM chelator), the “Average Intracellular ppb Cu” value was 22.9 ppb and the activity at 100 µM worked out at 46%. Besides, in series [1] (500 μM chelator), the “Average Intracellular ppb Cu” value was 17.6 ppb and the activity at 500 µM was determined as 36%.

As to `C[C@H](CS)C(=O)N1CCC[C@H]1C(=O)O` [Captopril, captopril], in series [2] (HMBA + chelator 20 μM), the “Benzidine Positive Cells (%)” value worked out at 29% and the “Cells/ml (×10^4)” value is recorded as 34 ×10^4. Further, in series [2] (HMBA + chelator 40 μM), the “Benzidine Positive Cells (%)” value stood at 12% and the “Cells/ml (×10^4)” value is listed as 34 ×10^4.

On to `NCCN` [EDA, ethylenediamine], for which, in series [3], the “cell proliferation and CFUc expansion in long-term CD34 cultures” value (“cell proliferation and CFUc expansion” below) is “support continuous cell proliferation and long-term generation of CFUc and to delay cell differentiation”. The “concentration with optimal activity” value in series [3] (setting [5]) was determined as 20 µM.

Regarding `CC(=O)NCCCCCCNC(C)=O` [HMBA, hexamethylene bisacetamide], in series [2] (HMBA 4 mM alone), the “Benzidine Positive Cells (%)” value was 46% and the “Cells/ml (×10^4)” value was 32 ×10^4.

Regarding `CN1c2ccc([N+](=O)[O-])cc2N=C(c2ccc(C(=O)O)cc2)c2cc3c(cc21)C(C)(C)CCC3(C)C` [HX-531, 4-[5H-2,3-(2,5-Dimethyl-2,5-Hexano) 5-Methyl-8-nitrodibenzo [b,e][1,4]diazepin-11-yl) Benzoic acid], the “CD34^+ (×10^4)” value in series [4] (setting [6]) is given as 167 ×10^4; in series [4] (HX-531, 5 weeks after seeding), 1636 ×10^4; in series [4] (HX-531, 9 weeks after seeding) it was 4977 ×10^4; in series [4] (HX-531, 11 weeks after seeding), 4055 ×10^4. In addition, the “CFU (×10^3)” value in series [4] (setting [6]) is listed as 1920 ×10^3; in series [4] (HX-531, 5 weeks after seeding), 8542 ×10^3; in series [4] (HX-531, 9 weeks after seeding), 36557 ×10^3; in series [4] (HX-531, 11 weeks after seeding), 67338 ×10^3. The “CFU mixed (×10^3)” value in series [4] (HX-531, 3 weeks after seeding) is recorded as 120 ×10^3.

`CCCOc1cc2c(cc1\C(C)=C/C=C/C(C)=C/C(=O)O)C(C)(C)CCC2(C)C` [LGN 100754]: in series [4] (10^−7 M, with TPO, FLT3, IL-6 and IL-3, 3 and 5 weeks), the “activity on ex vivo expansion of stem/progenitor cells (CFU, CD34+, CD34+/38−, CD34+/Lin−)” value is listed as “no activity”.

In the case of `NCCCN(CCN)CCN` [N,N,Bis (2 animoethyl) 1,3 propane diamine], in series [1] (20 μM chelator), the “Average Intracellular Cu (% of control)” value turned out to be 22% and the “Average Intracellular ppb Cu” value is reported as 10.8 ppb. In addition, in series [1] (100 μM chelator), the “Average Intracellular Cu (% of control)” value amounted to 27% and the “Average Intracellular ppb Cu” value amounted to 13.4 ppb.

Consider `NCCCNCCCNCCCN` [N,N′-bis(3-aminopropyl)-1,3-propanediamine], for which, in series [1] (20 μM chelator), the “Average Intracellular ppb Cu” value is given as 33.8 ppb and the activity at 20 µM was 69%. In series [1] (100 μM chelator), the “Average Intracellular ppb Cu” value turned out to be 26.2 ppb and the activity at 100 µM was determined as 53%. Also, in series [1] (500 μM chelator), the “Average Intracellular ppb Cu” value came to 27.9 ppb and the activity at 500 µM is 57%.

As for `CC(C)(S)[C@@H](N)C(=O)O` [PEN, Penicillamine], the “cell proliferation and CFUc expansion” value in series [3] is “sustained cell proliferation and expansion of clonogenic cells”. Also, in series [3] (transition metal chelating agents, long-term CD34 cultures (FIGS. 40a-b)), the “concentration with optimal activity” value was determined as 5 µM.

As for `NCCNCCNCCN` [TETA, triethylene-tetramine], the “cell proliferation and CFUc expansion” value in series [3] was “support continuous cell proliferation and long-term generation of CFUc and to delay cell differentiation”. In addition, the “concentration with optimal activity” value in series [3] (setting [5]) was found to be 20 µM. In series [1] (20 μM chelator), the “Average Intracellular ppb Cu” value is on record as 27.7 ppb and the activity at 20 µM is 56%. In series [1] (100 μM chelator), the “Average Intracellular ppb Cu” value is reported as 21.2 ppb and the activity at 100 µM was 43%. In series [1] (500 μM chelator), the “Average Intracellular ppb Cu” value was 16.8 ppb and the activity at 500 µM amounted to 34%.

As for Copper, in series [3] (TEPA-treated cultures supplemented with Copper), the “effect on TEPA activities” value is “reversed”.

Turning to Glycyl-glycyl-histidine Cu complex, the results for the “Average Intracellular Cu (% of control)” value in series [1] (20 μM chelator), in series [1] (100 μM chelator) and in series [1] (500 μM chelator) were 411%, 1181% and 2592%, respectively. Also, the “Average Intracellular ppb Cu” value in series [1] (20 μM chelator) was 202.7 ppb; in series [1] (100 μM chelator), 582 ppb; in series [1] (500 μM chelator) it was 1278 ppb.

Take Zinc: the “cell proliferation and CFUc expansion” value in series [3] is on record as “mimicked the effect of the chelating agents in long term cultures, but to a smaller extent than the chelators themselves”.
